In article PMC7582905, “Effect of Disulfide Cyclization of Ultrashort Cationic Lipopeptides on Antimicrobial Activity and Cytotoxicity” (International Journal of Molecular Sciences, 2020):
≈ marks a conversion by molar mass, not a printed value. Where a SMILES comes first, the peptide text is derived from it. Bridges are numbered along the chain shown (N, C = ends). The star is where a group is joined. Palmitoyl = CCCCCCCCCCCCCCCC(=O)*

What was measured:
Type in all cases: cell-based
[1] = test system: Candida albicans ATCC 10231; conditions: ATCC 10231, 24 h
Procedure: (§1) The Staphylococcus aureus ATCC 25923, Staphylococcus epidermidis ATCC 14990, Escherichia coli ATCC 25922, Pseudomonas aeruginosa ATCC 9027, Candida albicans ATCC 10231, Candida glabrata ATCC 15126, Candida lipolytica PCM 2680-FY, and Candida tropicalis PCM 2709-FY strains were acquired from the Polish Collection of Microorganisms (PCM, Polish Academy of Sciences, Wrocław, Poland) and from the American Type Culture Collection (ATCC). All the strains were stored at −80 °C in Roti-Store cryo vials and before the tests were transferred into fresh Mueller–Hinton broth (MHB, Biocorp, Warsaw, Poland) for bacteria or RPMI-1640 (Sigma-Aldrich, Steinheim, Germany) for fungi and incubated for 24 h at 37 °C. Then, the cultures were seeded on Mueller–Hinton agar (BioMaxima, Lublin, Poland) or Sabouraud dextrose agar (SDA, BioMaxima, Lublin, Poland) plates, respectively, and incubated as just mentioned. These agar cultures were used for further microbiological assays. Cell densities for all assays were adjusted spectrophotometrically (Multiskan GO Microplate Spectrophotometer, Thermo Fisher Scientific, Vantaa, Finland) at 600 and 660 nm for bacteria and fungi, respectively.
(§2) The MICs were determined by broth microdilution method according to the Clinical and Laboratory Standard Institute guidelines For this purpose, initial inoculums of bacteria (5 × 10^5 CFU/mL) in MHB and yeasts (2 × 10^3 CFU/mL) in RPMI-1640 with 2% D-glucose were exposed to the ranging concentration of lipopeptides (0.5–256 μg/mL) and incubated at 37 °C for 18 h and 24 h, respectively. The experiments were conducted on 96-well microtiter polystyrene plates. The growth was assessed visually after incubation and the MIC was assumed as the lowest peptide concentration at which a noticeable growth of microorganisms was inhibited. All experiments were conducted in triplicate.

[2] = test system: Candida glabrata ATCC 15126; conditions: ATCC 15126, 24 h
Procedure: as §1, §2

[3] = test system: Candida lipolytica PCM 2680-FY; conditions: 24 h
Procedure: as §1, §2

[4] = test system: Candida tropicalis PCM 2709-FY; conditions: PCM 2709-FY, 24 h
Procedure: as §1, §2

[5] = test system: Escherichia coli ATCC 25922; conditions: ATCC 25922, 18 h
Procedure: as §1, §2

[6] = test system: Pseudomonas aeruginosa ATCC 9027; conditions: ATCC 9027, 18 h
Procedure: as §1, §2

[7] = test system: Staphylococcus epidermidis ATCC 14990; conditions: ATCC 14990, 18 h
Procedure: as §1, §2

[8] = test system: Candida albicans ATCC 10231; conditions: ATCC 10231, 24 h; remark: listed apart in the source
Procedure: as §1
(§3) MBECs were determined on 96-well polystyrene flat-bottom plates. For this purpose, 24 h cultures of microorganisms were diluted to obtain final density 5.0 × 10^5 CFU/mL and 2.0 × 10^5 CFU/mL of bacteria and fungi, respectively. Briefly, 100 µL of cell suspension was added into the test plates. After 24 h of incubation at 37 °C the wells were rinsed three times with a phosphate buffer saline (PBS, pH 7.4) to remove non-adherent cells. Subsequently, 100 μL of the test compounds in concentration range (0.5–256 μg/mL) were added to each well. After 24 h of incubation at 37 °C, 20 μL of a cell viability reagent was added (resazurin, 4 g/L; Sigma Aldrich, St. Louis, MO, USA). The MBEC was read after 1 h. The determined values were recorded as the lowest concentration at which the reduction of resazurin (from blue to pink) was lower or equal to 10 ± 0.5% as compared to the positive (100%) and negative (0%) controls. The reduction was monitored by measuring absorbance at 570 nm (reduced) and 600 nm (oxidized) using a microplate spectrophotometer (Multiskan GO Microplate Spectrophotometer, Thermo Fisher Scientific, Vantaa, Finland). All experiments were conducted in triplicate.

[9] = test system: Candida glabrata ATCC 15126; conditions: ATCC 15126, 24 h; remark: listed apart in the source
Procedure: as §1, §3

[10] = test system: Candida lipolytica PCM 2680-FY; conditions: 24 h; remark: listed apart in the source
Procedure: as §1, §3

[11] = test system: Candida tropicalis PCM 2709-FY; conditions: PCM 2709-FY, 24 h; remark: listed apart in the source
Procedure: as §1, §3

[12] = test system: Escherichia coli ATCC 25922; conditions: ATCC 25922, 24 h
Procedure: as §1, §3

[13] = test system: Pseudomonas aeruginosa ATCC 9027; conditions: ATCC 9027, 24 h
Procedure: as §1, §3

[14] = test system: Staphylococcus epidermidis ATCC 14990; conditions: ATCC 14990, 24 h
Procedure: as §1, §3

[15] = test system: human cervical adenocarcinoma cell line (HeLa S3); assay: MTT assay; conditions: 24 h incubation at 37 °C, six replicates per concentration, repeated at least twice
Procedure: (§4) To assess the cytotoxicity of the test lipopeptides (IC50), the classic MTT assay on 96-well polystyrene plates was performed for human keratinocytes (HaCaT) and human cervical adenocarcinoma cell line (HeLa S3) acquired from the ATCC. The assay utilizes colorimetric determination of the cell metabolic activity and the color intensity reflects the number of live cells that can be measured spectrophotometrically. The cell line was cultured in a Dulbecco’s modified Eagle Medium (Invitrogen) supplemented with 10% fetal bovine serum (v/v), 100 units/mL of penicillin, 100 μg/mL of streptomycin, and 2 mM l-glutamine and was stored at 37 °C in a humidified 5% CO2 incubator. Briefly, a day after plating of 500 cells per well, a series of concentrations (0.1–200 μg/mL) of the test compounds were applied. DMSO was added to the control cells at a final concentration of 1.0% (v/v), which was related to the maximal concentration of the solvent compounds used in the experiment. After 24 h of incubation with the lipopeptides at 37 °C in a humidified 5% CO2 incubator, a medium containing 1 mg/mL of MTT (3-(4,5-dimethylthiazol-2-yl)-2,5-diphenyltetrazolium bromide) was added to the wells up to a final concentration of 0.5 mg/mL. Subsequently, the plates were incubated at 37 °C for 4 h. Then, the medium was removed by suction, and the formazan product was solubilized with DMSO. The background absorbance at 630 nm was subtracted from that at 570 nm for each well (Epoch, BioTek Instruments, Winooski, VT, USA). Six replicates were conducted for each concentration. All experiments were repeated at least twice and the resulting IC50 values were calculated with a GraFit 7 software (v. 7.0, Erithacus, Berkley, CA, USA).

[16] = test system: human keratinocytes (HaCaT); assay: MTT assay; conditions: 24 h incubation at 37 °C, six replicates per concentration, repeated at least twice
Procedure: as §4

SMILES	MIC C. albicans [1]	MIC C. glabrata [2]	MIC C. lipolytica [3]	MIC C. tropicalis [4]	MIC E. coli [5]	MIC P. aeruginosa [6]	MIC S. epidermidis [7]	MBEC C. albicans [8]	MBEC C. glabrata [9]	MBEC C. lipolytica [10]	MBEC C. tropicalis [11]	MBEC E. coli [12]	MBEC P. aeruginosa [13]	MBEC S. epidermidis [14]	HeLa IC50 [15]	HaCaT IC50 [16]
CCCCCCCCCCCCCCCC(=O)N[C@H]1CSSC[C@@H](C(N)=O)NC(=O)[C@H](CCCCN)NC(=O)[C@H](CCCCN)NC(=O)[C@H](CCCNC(=N)N)NC(=O)[C@H](CCCNC(=N)N)NC1=O [C7, C16-CRRKKC-NH2] (Palmitoyl-CRRKKC-NH2; disulfide 1-6)	16 µg/mL (≈ 15.6 µM)	4 µg/mL (≈ 3.89 µM)	4 µg/mL (≈ 3.89 µM)	4 µg/mL (≈ 3.89 µM)	16 µg/mL (≈ 15.6 µM)	256 µg/mL (≈ 249 µM)	4 µg/mL (≈ 3.89 µM)	64 µg/mL	64 µg/mL	16 µg/mL	32 µg/mL	256 µg/mL	256 µg/mL	64 µg/mL	20.9 ± 2.1 µg/mL	21.3 ± 8.2 µg/mL
CCCCCCCCCCCCCCCC(=O)N[C@@H](CCCCN)C(=O)N[C@@H](CCCCN)C(=O)N[C@@H](CCCCN)C(N)=O [L1, C16-KKK-NH2]	32 µg/mL (≈ 50 µM)	32 µg/mL (≈ 50 µM)	16 µg/mL (≈ 25 µM)	8 µg/mL (≈ 12.5 µM)	16 µg/mL (≈ 25 µM)	64 µg/mL (≈ 100 µM)	8 µg/mL (≈ 12.5 µM)	256 µg/mL	256 µg/mL	64 µg/mL	128 µg/mL	64 µg/mL	128 µg/mL	32 µg/mL	3.9 ± 1.1 µg/mL	5.2 ± 0.6 µg/mL
CCCCCCCCCCCCCCCC(=O)N[C@@H](CCCCN)C(=O)N[C@@H](CCCCN)C(=O)N[C@@H](CCCCN)C(=O)N[C@@H](CCCCN)C(N)=O [L2, C16-KKKK-NH2] (Palmitoyl-KKKK-NH2)	32 µg/mL (≈ 41.7 µM)	64 µg/mL (≈ 83.3 µM)	8 µg/mL (≈ 10.4 µM)	4 µg/mL (≈ 5.21 µM)	32 µg/mL (≈ 41.7 µM)	16 µg/mL (≈ 20.8 µM)	8 µg/mL (≈ 10.4 µM)	256 µg/mL	256 µg/mL	64 µg/mL	128 µg/mL	64 µg/mL	>256 µg/mL	32 µg/mL	12.8 ± 1.1 µg/mL	23.5 ± 1.3 µg/mL
CCCCCCCCCCCCCCCC(=O)N[C@@H](CCCNC(=N)N)C(=O)N[C@@H](CCCCN)C(=O)N[C@@H](CCCCN)C(=O)N[C@@H](CCCCN)C(N)=O [L3, C16-RKKK-NH2] (Palmitoyl-RKKK-NH2)	8 µg/mL (≈ 10 µM)	64 µg/mL (≈ 80.4 µM)	8 µg/mL (≈ 10 µM)	8 µg/mL (≈ 10 µM)	8 µg/mL (≈ 10 µM)	32 µg/mL (≈ 40.2 µM)	8 µg/mL (≈ 10 µM)	128 µg/mL	128 µg/mL	32 µg/mL	32 µg/mL	128 µg/mL	256 µg/mL	32 µg/mL	8.4 ± 1.7 µg/mL	23.6 ± 3.4 µg/mL
CCCCCCCCCCCCCCCC(=O)N[C@@H](CCCCN)C(=O)N[C@@H](CCCNC(=N)N)C(=O)N[C@@H](CCCCN)C(=O)N[C@@H](CCCCN)C(N)=O [L4, C16-KRKK-NH2] (Palmitoyl-KRKK-NH2)	16 µg/mL (≈ 20.1 µM)	32 µg/mL (≈ 40.2 µM)	1 µg/mL (≈ 1.26 µM)	2 µg/mL (≈ 2.51 µM)	8 µg/mL (≈ 10 µM)	32 µg/mL (≈ 40.2 µM)	8 µg/mL (≈ 10 µM)	128 µg/mL	128 µg/mL	32 µg/mL	64 µg/mL	64 µg/mL	>256 µg/mL	32 µg/mL	3.0 ± 0.6 µg/mL	4.3 ± 0.9 µg/mL
CCCCCCCCCCCCCCCC(=O)N[C@@H](CCCCN)C(=O)N[C@@H](CCCCN)C(=O)N[C@@H](CCCNC(=N)N)C(=O)N[C@@H](CCCCN)C(N)=O [L5, C16-KKRK-NH2] (Palmitoyl-KKRK-NH2)	32 µg/mL (≈ 40.2 µM)	64 µg/mL (≈ 80.4 µM)	8 µg/mL (≈ 10 µM)	8 µg/mL (≈ 10 µM)	8 µg/mL (≈ 10 µM)	64 µg/mL (≈ 80.4 µM)	8 µg/mL (≈ 10 µM)	256 µg/mL	256 µg/mL	64 µg/mL	128 µg/mL	64 µg/mL	256 µg/mL	32 µg/mL	6.2 ± 2.7 µg/mL	2.4 ± 0.4 µg/mL
CCCCCCCCCCCCCCCC(=O)N[C@@H](CCCCN)C(=O)N[C@@H](CCCCN)C(=O)N[C@@H](CCCCN)C(=O)N[C@@H](CCCNC(=N)N)C(N)=O [L6, C16-KKKR-NH2] (Palmitoyl-KKKR-NH2)	32 µg/mL (≈ 40.2 µM)	64 µg/mL (≈ 80.4 µM)	8 µg/mL (≈ 10 µM)	8 µg/mL (≈ 10 µM)	8 µg/mL (≈ 10 µM)	64 µg/mL (≈ 80.4 µM)	4 µg/mL (≈ 5.02 µM)	128 µg/mL	128 µg/mL	32 µg/mL	128 µg/mL	256 µg/mL	256 µg/mL	32 µg/mL	3.6 ± 0.5 µg/mL	7.5 ± 0.8 µg/mL
